Each structure is given as a SMILES string. Like-named read-outs stand apart in the source and are kept apart here.

This experiment addresses SARS-CoV-2 NSP3 macrodomain (Mac1), P43 crystal form (Severe acute respiratory syndrome coronavirus 2, UniProt P0DTD1). The experiment is classed as binding. The note with it: for 1-BDC: PanDDA background density correction; for X-ray crystal structure: X-ray crystal structure determined (TRUE); for Pandda run, overall: Hit / Pandda run, overall: Modeled / PanDDA run, DMSO background map: 1-BDC / PanDDA run, DMSO background map: Hit / Pandda run, overall: Modeling comment / PanDDA run, TFA/DMSO background map: 1-BDC / PanDDA run, TFA/DMSO background map: Hit: crystal soak 10 mM; for Pandda run, overall: Hit / Pandda run, overall: Modeled / Pandda run, overall: Modeling comment: P43 crystals; for Total number of conformations: ligand conformations modeled in Mac1 crystal structure; for Binding site: site of ligand in X-ray crystal structure; for X-ray crystallography: Binding site: site where the ligand is bound in the X-ray crystal structure.

[1] abbreviates: occupancy estimate from PanDDA 1-BDC.

As to `OCC(Cc1c[nH]c2ccccc12)Nc1ncnc2[nH]ccc12` (stereo not shown) [AVI-3650], the 1-BDC came out at 0.15; the X-ray crystal structure result is given as “TRUE”; the “Pandda run, overall: Hit” value is “TRUE”; the “Pandda run, overall: Modeled” value is given as “TRUE”. Besides, the “PanDDA run, DMSO background map: 1-BDC” value worked out at 0.15; the “PanDDA run, DMSO background map: Hit” value is listed as “TRUE”; the “Total number of conformations” value is listed as 2; the Binding site result is on record as “Adenosine”. In addition, the “2*(1-BDC) (%)” value under setting [1] is on record as 30%.
For `OC(c1ccccc1)C1CCCN1c1ncnc2[nH]ccc12` (stereo not shown) [AVI-3652], the 1-BDC is given as 0.22; the “Pandda run, overall: Hit” value was “TRUE”; the “Pandda run, overall: Modeled” value is given as “TRUE”; the “PanDDA run, DMSO background map: 1-BDC” value is on record as 0.22. The “PanDDA run, DMSO background map: Hit” value is reported as “TRUE”; the “Total number of conformations” value was found to be 1; the “X-ray crystallography: Binding site” value was “Adenosine”. For the same compound, the “2*(1-BDC) (%)” value under setting [1] is given as 44%.
Turning to `O=C(O)C(F)(F)F.OC[C@@H](CCc1ccccc1)Nc1ncnc2[nH]ccc12` [AVI-3654], the “Pandda run, overall: Hit” value is given as “TRUE”; the “Pandda run, overall: Modeling comment” value was “Weak density for phenyl, not modeled”; the “PanDDA run, DMSO background map: 1-BDC” value was 0.14; the “PanDDA run, DMSO background map: Hit” value is listed as “TRUE”. For the same compound, the “PanDDA run, TFA/DMSO background map: 1-BDC” value is 0.07 and the “PanDDA run, TFA/DMSO background map: Hit” value is “TRUE”.
As for `CC1CCN(c2ncnc3[nH]ccc23)C1CO` (stereo not shown) [AVI-3655], the 1-BDC turned out to be 0.21; the “Pandda run, overall: Hit” value is “TRUE”; the “Pandda run, overall: Modeled” value is given as “TRUE”; the “PanDDA run, DMSO background map: 1-BDC” value was found to be 0.21. Also, the “PanDDA run, DMSO background map: Hit” value is given as “TRUE”; the “Total number of conformations” value is on record as 1; the “X-ray crystallography: Binding site” value is reported as “Adenosine”. For the same compound, the “2*(1-BDC) (%)” value under setting [1] was 42%.
As to `CO[C@@H]1C[C@H](CO)N(c2ncnc3[nH]ccc23)C1` [AVI-3656], the 1-BDC worked out at 0.26; the “Pandda run, overall: Hit” value is listed as “TRUE”; the “Pandda run, overall: Modeled” value is reported as “TRUE”; the “PanDDA run, DMSO background map: 1-BDC” value came to 0.26. Also, the “PanDDA run, DMSO background map: Hit” value is “TRUE”; the “Total number of conformations” value is recorded as 1; the “X-ray crystallography: Binding site” value was “Adenosine”. Further, under setting [1], the “2*(1-BDC) (%)” value is recorded as 52%.
In the case of `Cn1cc(CC(CO)Nc2ncnc3[nH]ccc23)cn1` (stereo not shown) [AVI-3657], the 1-BDC turned out to be 0.15; the X-ray crystal structure entry is “TRUE”; the “Pandda run, overall: Hit” value is reported as “TRUE”; the “Pandda run, overall: Modeled” value is “TRUE”. In addition, the “PanDDA run, DMSO background map: 1-BDC” value worked out at 0.15; the “PanDDA run, DMSO background map: Hit” value is “TRUE”; the “Total number of conformations” value turned out to be 1; the Binding site entry is “Adenosine”. Under setting [1], the “2*(1-BDC) (%)” value is 30%.
As for `OCC(CC1OCCO1)Nc1ncnc2[nH]ccc12` (stereo not shown) [AVI-3658], the 1-BDC is listed as 0.2; the X-ray crystal structure entry is recorded as “TRUE”; the “Pandda run, overall: Hit” value is listed as “TRUE”; the “Pandda run, overall: Modeled” value is recorded as “TRUE”. Besides, the “PanDDA run, DMSO background map: 1-BDC” value is given as 0.2; the “PanDDA run, DMSO background map: Hit” value was “TRUE”; the “Total number of conformations” value was 1; the Binding site result is reported as “Adenosine”. Under setting [1], the “2*(1-BDC) (%)” value is 40%.
In the case of `OCC(Nc1ncnc2[nH]ccc12)c1ccco1` (stereo not shown) [AVI-3659], the 1-BDC is listed as 0.16; the X-ray crystal structure entry is “TRUE”; the “Pandda run, overall: Hit” value is reported as “TRUE”; the “Pandda run, overall: Modeled” value is “TRUE”. Further, the “PanDDA run, DMSO background map: 1-BDC” value stood at 0.16; the “PanDDA run, DMSO background map: Hit” value is reported as “TRUE”; the “Total number of conformations” value came to 1; the Binding site result is “Adenosine”. Further, the “2*(1-BDC) (%)” value under setting [1] is 32%.
For `OCC(CC1CCCO1)Nc1ncnc2[nH]ccc12` (stereo not shown) [AVI-3660], the 1-BDC is listed as 0.23; the X-ray crystal structure result is reported as “TRUE”; the “Pandda run, overall: Hit” value is on record as “TRUE”; the “Pandda run, overall: Modeled” value is reported as “TRUE”. Besides, the “PanDDA run, DMSO background map: 1-BDC” value was 0.23; the “PanDDA run, DMSO background map: Hit” value is on record as “TRUE”; the “Total number of conformations” value came out at 1; the Binding site result is “Adenosine”. Moreover, the “2*(1-BDC) (%)” value under setting [1] is recorded as 46%.
Consider `OC1CCN(c2ncnc3[nH]ccc23)C1` (stereo not shown) [AVI-3661], for which the “Occupancy difference (refined_occupancy - 2*(1-BDC))” value stood at 10; the “Refined ligand occupancy (%)” value is on record as 40%; the 1-BDC worked out at 0.15; the “Pandda run, overall: Hit” value is “TRUE”. The “Pandda run, overall: Modeled” value is “TRUE”; the “PanDDA run, DMSO background map: 1-BDC” value is recorded as 0.15; the “PanDDA run, DMSO background map: Hit” value is listed as “TRUE”; the “Total number of conformations” value worked out at 1. The “X-ray crystallography: Binding site” value is “Adenosine”. The “2*(1-BDC) (%)” value (occupancy estimate from PanDDA BDC) is reported as 30%. Also, the “Refined TFA occupancy (%)” value (occupancy of TFA in the dataset of the named ligand) amounted to 20%.
As to `OCC(CC1CC1)Nc1ncnc2[nH]ccc12` (stereo not shown) [AVI-3662], the 1-BDC was determined as 0.14; the X-ray crystal structure result is reported as “TRUE”; the “Pandda run, overall: Hit” value was “TRUE”; the “Pandda run, overall: Modeled” value is “TRUE”. Besides, the “Pandda run, overall: Modeling comment” value was “Distal site, weak density, not modeled”; the “PanDDA run, DMSO background map: 1-BDC” value is recorded as 0.14; the “PanDDA run, DMSO background map: Hit” value is reported as “TRUE”; the “Total number of conformations” value is reported as 1. The Binding site result is on record as “Adenosine”. Moreover, the “2*(1-BDC) (%)” value under setting [1] is 28%.
Regarding `OCC(CC1CCOC1)Nc1ncnc2[nH]ccc12` (stereo not shown) [AVI-3665], the 1-BDC is 0.17; the X-ray crystal structure result is listed as “TRUE”; the “Pandda run, overall: Hit” value is given as “TRUE”; the “Pandda run, overall: Modeled” value is on record as “TRUE”. Besides, the “PanDDA run, DMSO background map: 1-BDC” value was 0.17; the “PanDDA run, DMSO background map: Hit” value is “TRUE”; the “Total number of conformations” value is given as 1; the Binding site result was “Adenosine”. In addition, the “2*(1-BDC) (%)” value under setting [1] was 34%.
In the case of `CCC(Nc1ncnc2[nH]ccc12)C(C)(C)O` (stereo not shown) [AVI-3667], the 1-BDC is listed as 0.14; the X-ray crystal structure result is given as “TRUE”; the “Pandda run, overall: Hit” value is on record as “TRUE”; the “Pandda run, overall: Modeled” value is “TRUE”. Moreover, the “PanDDA run, DMSO background map: 1-BDC” value came out at 0.14; the “PanDDA run, DMSO background map: Hit” value is given as “TRUE”; the “Total number of conformations” value is given as 1; the Binding site result was “Adenosine”. For the same compound, under setting [1], the “2*(1-BDC) (%)” value was 28%.
`CC(C)CCC(CO)Nc1ncnc2[nH]ccc12.O=C(O)C(F)(F)F` (stereo not shown) [AVI-3668]: the “Pandda run, overall: Hit” value was “TRUE”; the “Pandda run, overall: Modeling comment” value is “Weak density, not modeled”; the “PanDDA run, DMSO background map: 1-BDC” value is 0.15; the “PanDDA run, DMSO background map: Hit” value is listed as “TRUE”. Moreover, the “PanDDA run, TFA/DMSO background map: 1-BDC” value is on record as 0.09 and the “PanDDA run, TFA/DMSO background map: Hit” value is recorded as “TRUE”.
For the compound `OCC(Cc1nccs1)Nc1ncnc2[nH]ccc12` (stereo not shown) [AVI-3673], the 1-BDC is 0.19; the X-ray crystal structure result is on record as “TRUE”; the “Pandda run, overall: Hit” value is listed as “TRUE”; the “Pandda run, overall: Modeled” value is recorded as “TRUE”. The “PanDDA run, DMSO background map: 1-BDC” value was 0.19; the “PanDDA run, DMSO background map: Hit” value was “TRUE”; the “Total number of conformations” value worked out at 1; the Binding site entry is “Adenosine”. In addition, the “2*(1-BDC) (%)” value under setting [1] is 38%.
As to `Cc1ccccc1CC(CO)Nc1ncnc2[nH]ccc12` (stereo not shown) [AVI-3674], the 1-BDC amounted to 0.19; the X-ray crystal structure result is given as “TRUE”; the “Pandda run, overall: Hit” value is recorded as “TRUE”; the “Pandda run, overall: Modeled” value is “TRUE”. In addition, the “PanDDA run, DMSO background map: 1-BDC” value came out at 0.19; the “PanDDA run, DMSO background map: Hit” value was “TRUE”; the “Total number of conformations” value is recorded as 1; the Binding site result was “Adenosine”. The “2*(1-BDC) (%)” value under setting [1] is on record as 38%.
In the case of `O=C(O)C(F)(F)F.OCC(CC1CCOCC1)Nc1ncnc2[nH]ccc12` (stereo not shown) [AVI-3676], the “Pandda run, overall: Modeling comment” value is reported as “TFA only”.
As for `OCC(Nc1ncnc2[nH]ccc12)C1CCOC1` (stereo not shown) [AVI-3679], the 1-BDC amounted to 0.16; the X-ray crystal structure entry was “TRUE”; the “Pandda run, overall: Hit” value is reported as “TRUE”; the “Pandda run, overall: Modeled” value is “TRUE”. Moreover, the “PanDDA run, DMSO background map: 1-BDC” value was found to be 0.16; the “PanDDA run, DMSO background map: Hit” value is given as “TRUE”; the “Total number of conformations” value was 1; the Binding site entry is “Adenosine”. Further, the “2*(1-BDC) (%)” value under setting [1] is on record as 32%.
On to `O=C(O)C(F)(F)F.OCC12CC(CN1c1ncnc3[nH]ccc13)C2` [AVI-3681], for which the 1-BDC is 0.22; the “Pandda run, overall: Hit” value is “TRUE”; the “Pandda run, overall: Modeled” value is “TRUE”; the “Pandda run, overall: Modeling comment” value was “Distal site, weak density, not modeled”. Further, the “PanDDA run, DMSO background map: 1-BDC” value is recorded as 0.22; the “PanDDA run, DMSO background map: Hit” value is given as “TRUE”; the “Total number of conformations” value turned out to be 1; the “X-ray crystallography: Binding site” value is listed as “Adenosine”. Moreover, the “2*(1-BDC) (%)” value under setting [1] is on record as 44%.
With `Cc1ccc(CC(CO)Nc2ncnc3[nH]ccc23)cc1` (stereo not shown) [AVI-3683], the 1-BDC was found to be 0.15; the X-ray crystal structure result is listed as “TRUE”; the “Pandda run, overall: Hit” value is “TRUE”; the “Pandda run, overall: Modeled” value is “TRUE”. The “PanDDA run, DMSO background map: 1-BDC” value amounted to 0.15; the “PanDDA run, DMSO background map: Hit” value was “TRUE”; the “Total number of conformations” value is recorded as 2; the Binding site entry was “Adenosine”. Besides, the “2*(1-BDC) (%)” value under setting [1] is 30%.

Values taken from article doi:10.1101/2024.08.25.609621 (bioRxiv, 2024).
